This passage reports TGI and GI50 results from PubChem BioAssay (NCI).

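These data come from cells grown in 96-well plates and exposed to compound for 48 hours at five concentrations. GI50 is the concentration that inhibits growth by half. At the TGI there is no net growth.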

What all share (assay): NCI anticancer screen, dose series, 48 h
Assay [1] has as its system OVCAR-8 ovarian.
Assay [2] deals with LOX IMVI melanoma.
The subject of assay [3] is OVCAR-3 ovarian.
In assay [4] the test system is TK-10 renal.
In assay [5] the test system is SF-539 CNS.
Assay [6] concerns RXF 393 renal.
Assay [7] deals with NCI-H460 lung.
The test system of assay [8] is HOP-62 NSCLC.
Assay [9] concerns MALME-3M melanoma.

Regarding `COS(=O)CCOC(=O)c1ccccc1SSc1ccccc1C(=O)OCCS(=O)OC` (centres undefined), the TGI is 81.2 µM in assay [1]; 61.6 µM in assay [2]; 54.5 µM in [3]; greater than 100 µM in assay [4]; 65.6 µM in [5]; 28 µM in assay [6]. The TGI in assay [7] was greater than 100 µM; in assay [8] it was greater than 100 µM; in assay [9] it was 63.7 µM.

Regarding `CC(C)c1cc2c(O)c(c1)Cc1cc(C(C)C)cc(c1O)Cc1cc(C(C)C)cc(c1O)Cc1cc(C(C)C)cc(c1O)Cc1cc(C(C)C)cc(c1O)Cc1cc(C(C)C)cc(c1O)C2`, the TGI in assay [1], in [3], in assay [4], in assay [5], in assay [6] and in assay [7] was greater than 100 µM throughout. For the same molecule, the TGI in [8] and in assay [9] was greater than 100 µM each time.

Regarding `c1ccc(CN(Cc2ccccn2)Cn2cccn2)nc1`, the TGI in assay [1], in [2], in [3], in assay [4], in assay [5] and in assay [6] was greater than 100 µM throughout. Besides, the TGI in [7] and in assay [8] was greater than 100 µM throughout.

In the case of `COCCn1cc(-c2csc(-c3c[nH]c4ccc(F)cc34)n2)c2cccnc21`, the GI50 was 4.1 µM in assay [1]; 3.44 µM in assay [2]; 3.34 µM in [3]; 8.86 µM in [5]; 5.91 µM in assay [6]; 3.38 µM in assay [7]. Further, the GI50 in [8] was 2.02 µM; in [9] it was 4.54 µM. Further, the TGI in assay [1], in assay [2], in assay [3], in assay [5], in [6] and in assay [7] was greater than 100 µM each time. The TGI in assay [8] and in assay [9] was greater than 100 µM in each case.

On to `Clc1ccc(CCN2CCOCC2)c(Cl)c1`, for which the TGI in assay [1], in assay [5], in [6], in assay [7], in assay [8] and in [9] was greater than 100 µM each time.

As for `O=C(O)C1C2CC3CC2CC31` (centres undefined), the TGI in assay [1], in assay [2], in assay [3], in [4], in assay [5] and in assay [6] was greater than 100 µM each time. Also, the TGI in [7], in assay [8] and in assay [9] was greater than 100 µM in each case.

As for `CN(C)c1ccc(/C=N/Nc2ccc(-c3nc4ccccc4[nH]3)cc2)cc1`, the GI50 was 9.79 µM in assay [1]; 4.86 µM in assay [2]; 31.7 µM in assay [3]; 47.3 µM in [4]; 9.33 µM in assay [7]; 20.8 µM in assay [8]. Moreover, the TGI is 32.4 µM in assay [1]; 11.6 µM in [2]; greater than 50 µM in assay [3]; greater than 50 µM in [4]; 20.4 µM in assay [7]; greater than 50 µM in assay [8].

As to `Clc1cccc(C2SCc3nc4ccccc4n32)c1Cl` (centres undefined), the TGI came out at 37 µM in [1]; 33.7 µM in assay [3]; 29.2 µM in assay [4]; 32.5 µM in assay [5]; 29.6 µM in assay [6]; 34.6 µM in [7]. Moreover, the TGI in assay [8] is 32 µM.

For the molecule `OCC(O)C(OC1OC(CO)C(O)C(O)C1O)c1nn(-c2ccc(F)cc2)c2nc3cc(Cl)c(Cl)cc3cc12` (centres undefined), the TGI in assay [1], in assay [2], in assay [3], in assay [4], in assay [5] and in [6] was greater than 100 µM throughout. The TGI in assay [7], in assay [8] and in assay [9] was greater than 100 µM throughout.

Regarding `Cc1nc(Nc2ccc([N+](=O)[O-])cc2)sc1C(=O)/C=C/c1ccc(N(C)C)cc1`, the TGI in assay [1], in assay [2], in [3], in [4], in assay [5] and in assay [6] was greater than 100 µM each time. In addition, the TGI in [7], in assay [8] and in assay [9] was greater than 100 µM each time.

Take `N#CC(C#N)=C/C=C/c1cccc([N+](=O)[O-])c1`: the GI50 in [1] was 0.329 µM; in assay [2], 0.913 µM; in assay [3], 0.533 µM; in [5] it was 2.55 µM; in [6] it was 0.8 µM; in [7], 1.21 µM. The GI50 is 1.81 µM in [8] and 1.69 µM in assay [9]. Also, the TGI in assay [1] was determined as 1.36 µM; in assay [2] it was 2.37 µM; in assay [3], 4.36 µM; in assay [5], 18.4 µM; in [6], 2.06 µM; in assay [7], 2.68 µM. In addition, the TGI in assay [8] was 6.39 µM; in assay [9] it was 8.87 µM.
